Test results taken from patent publication US20240199587A1, “HETEROCYCLIC COMPOUNDS” (Hoffmann-La Roche Inc., priority 2021, published 2024).

Biological target: T1, MAGL (Homo sapiens, UniProt Q99685)
T1 sequence (Q99685 1-303): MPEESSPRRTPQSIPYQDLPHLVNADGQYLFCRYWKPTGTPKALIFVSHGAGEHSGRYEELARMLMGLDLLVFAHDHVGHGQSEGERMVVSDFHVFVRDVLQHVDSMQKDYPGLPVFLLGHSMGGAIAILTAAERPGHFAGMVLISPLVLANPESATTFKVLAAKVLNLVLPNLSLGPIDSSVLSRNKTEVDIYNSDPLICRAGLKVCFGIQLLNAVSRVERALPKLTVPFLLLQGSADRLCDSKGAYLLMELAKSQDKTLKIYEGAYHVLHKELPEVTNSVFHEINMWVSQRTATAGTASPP
Assay: 2-AG assay (MAGL inhibitory activity, hydrolysis of 2-arachidonoylglycerol to arachidonic acid followed by mass spectrometry)
Assay type: biochemical
Settings: 8 μM 2-arachidonoylglycerol, 15 min pre-incubation, 30 min incubation at RT, RapidFire MS readout
In short: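 Arachidonic acid released from 8 μM 2-arachidonoylglycerol was quantified by online SPE triple-quadrupole MS (negative ESI, 303.1→259.1), normalised to d8-arachidonic acid internal standard. Reaction ran 30 min at RT after 15 min RT compound pre-incubation with […] MAGL in TRIS/EDTA/Tween-20 buffer, 2.5% DMSO.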

SMILES | IC50 [nM]
O=C(N1CC2(CC(n3cnc(C4CC4)n3)C2)C1)N1CC2(CCN(Cc3cnc(C(F)(F)F)cn3)C2)C1 [Example 437] | 6.37
O=C(N1CC2(CC(n3cnc(C4CC4)n3)C2)C1)N1CC2(CCN(Cc3ccc(C(F)(F)F)nn3)C2)C1 [Example 438, [6-(3-cyclopropyl-1,2,4-triazol-1-yl)-2-azaspiro[3.3]heptan-2-yl]-[7-[[6-(trifluoromethyl)pyridazin-3-yl]methyl]-2,7-diazaspiro[3.4]octan-2-yl]methanone] | 14.9
O=C(N1CC(C23CC(NCC4(C(F)(F)F)CC4)(C2)C3)C1)N1CC2(CC(n3cnc(C4CC4)n3)C2)C1 [Example 445, [6-(3-cyclopropyl-1,2,4-triazol-1-yl)-2-azaspiro[3.3]heptan-2-yl]-[3-[3-[[1-(trifluoromethyl)cyclopropyl]methylamino]-1-bicyclo[1.1.1]pentanyl]azetidin-1-yl]methanone] | 0.3
N=S(=O)(c1ccc(CC2CC3(C2)CN(C(=O)N2CC4(CC(n5cnc(C6CC6)n5)C4)C2)C3)cc1)C(F)(F)F (stereo not shown) [Example 446, [6-(3-cyclopropyl-1,2,4-triazol-1-yl)-2-azaspiro[3.3]heptan-2-yl]-[6-[[4-(trifluoromethylsulfonimidoyl)phenyl]methyl]-2-azaspiro[3.3]heptan-2-yl]methanone] | 0.06
N=S(=O)(c1cccc(CC2CC3(C2)CN(C(=O)N2CC4(CC(n5cnc(C6CC6)n5)C4)C2)C3)c1)C(F)(F)F (stereo not shown) [Example 447, [6-(3-cyclopropyl-1,2,4-triazol-1-yl)-2-azaspiro[3.3]heptan-2-yl]−[6-[[3-(trifluoromethylsulfonimidoyl)phenyl]methyl]-2-azaspiro[3.3]heptan-2-yl]methanone] | 0.02
CC1(Cc2nnc(-c3ccc(C4CN(C(=O)N5CC6(CC(n7cnc(C8CC8)n7)C6)C5)C4)cc3)[nH]2)CC1 [Example 448, [6-(3-cyclopropyl-1,2,4-triazol-1-yl)-2-azaspiro[3.3]heptan-2-yl]-[3-[4-[5-[(1-methylcyclopropyl)methyl]-4H-1,2,4-triazol-3-yl]phenyl]azetidin-1-yl]methanone] | 0.93
O=C(N1CC2(CC(n3cnc(C4CC4)n3)C2)C1)N1CC2(CC(n3cnc(C(F)(F)F)n3)C2)C1 [Example 449, [6-(3-cyclopropyl-1,2,4-triazol-1-yl)-2-azaspiro[3.3]heptan-2-yl]-[6-[3-(trifluoromethyl)-1,2,4-triazol-1-yl]-2-azaspiro[3.3]heptan-2-yl]methanone] | 1.37
O=C(N1CC2(CC(n3cnc(C4CC4)n3)C2)C1)N1CC2(CC(n3ncnc3C3CC3)C2)C1 [Example 450, [6-(3-cyclopropyl-1,2,4-triazol-1-yl)-2-azaspiro[3.3]heptan-2-yl]-[6-(5-cyclopropyl-1,2,4-triazol-1-yl)-2-azaspiro[3.3]heptan-2-yl]methanone] | 71.4
COc1cc(C(F)(F)F)ccc1CNC1CN(C(=O)N2CC3(CC(n4cnc(C(F)(F)F)n4)C3)C2)C1 [Example 451, [3-[[2-methoxy-4-(trifluoromethyl)phenyl]methylamino]azetidin-1-yl]-[6-[3-(trifluoromethyl)-1,2,4-triazol-1-yl]-2-azaspiro[3.3]heptan-2-yl]methanone] | 31.7
O=C(N1CC(c2ccc(N3CC(O)(C(F)(F)F)C3)nc2)C1)N1CC2(CC(n3cnc(C(F)(F)F)n3)C2)C1 [Example 452, [3-[6-[3-hydroxy-3-(trifluoromethyl)azetidin-1-yl]-3-pyridyl]azetidin-1-yl]-[6-[3-(trifluoromethyl)-1,2,4-triazol-1-yl]-2-azaspiro[3.3]heptan-2-yl]methanone] | 3.69
CC1(O)CN(c2ccc(C3CN(C(=O)N4CC5(CC(n6cnc(C(F)(F)F)n6)C5)C4)C3)cn2)C1 [Example 453, [3-[6-(3-hydroxy-3-methyl-azetidin-1-yl)-3-pyridyl]azetidin-1-yl]-[6-[3-(trifluoromethyl)-1,2,4-triazol-1-yl]-2-azaspiro[3.3]heptan-2-yl]methanone] | 39.4
CS(=O)(=O)c1cncc(CC2CC3(C2)CN(C(=O)N2CC4(CC(n5cnc(C(F)(F)F)n5)C4)C2)C3)c1 [Example 457, [6-[(5-methylsulfonyl-3-pyridyl)methyl]-2-azaspiro[3.3]heptan-2-yl]-[6-[3-(trifluoromethyl)-1,2,4-triazol-1-yl]-2-azaspiro[3.3]heptan-2-yl]methanone] | 11
CS(=O)(=O)c1ccc(CC2CC3(C2)CN(C(=O)N2CC4(CC(n5cnc(C(F)(F)F)n5)C4)C2)C3)c(F)c1 [Example 459, [6-[(2-fluoro-4-methylsulfonyl-phenyl)methyl]-2-azaspiro[3.3]heptan-2-yl]-[6-[3-(trifluoromethyl)-1,2,4-triazol-1-yl]-2-azaspiro[3.3]heptan-2-yl]methanone] | 0.3

Continued by falling IC50, values first:

IC50 [nM] | SMILES
19.4 | CS(=O)(=O)c1ccc(CC2CC3(C2)CN(C(=O)N2CC4(CC(n5cnc(C(F)(F)F)n5)C4)C2)C3)nc1 [Example 458, [6-[(5-methylsulfonyl-2-pyridyl)methyl]-2-azaspiro[3.3]heptan-2-yl]-[6-[3-(trifluoromethyl)-1,2,4-triazol-1-yl]-2-azaspiro[3.3]heptan-2-yl]methanone]
3.74 | O=C(N1CC2(CC(n3cnc(C4CC4)n3)C2)C1)N1CC2(CCN(Cc3ccc(C(F)(F)F)cn3)C2)C1 [Example 439, [6-(3-cyclopropyl-1,2,4-triazol-1-yl)-2-azaspiro[3.3]heptan-2-yl]-[7-[[5-(trifluoromethyl)-2-pyridyl]methyl]-2,7-diazaspiro[3.4]octan-2-yl]methanone]
1.25 | CS(=O)(=O)c1ccc(CC2CC3(C2)CN(C(=O)N2CC4(CC(n5cnc(C(F)(F)F)n5)C4)C2)C3)cc1 [Example 455, [6-[(4-methylsulfonylphenyl)methyl]-2-azaspiro[3.3]heptan-2-yl]-[6-[3-(trifluoromethyl)-1,2,4-triazol-1-yl]-2-azaspiro[3.3]heptan-2-yl]methanone]
1.16 | CS(=O)(=O)c1cccc(CC2CC3(C2)CN(C(=O)N2CC4(CC(n5cnc(C(F)(F)F)n5)C4)C2)C3)c1 [Example 456, [6-[(3-methylsulfonylphenyl)methyl]-2-azaspiro[3.3]heptan-2-yl]-[6-[3-(trifluoromethyl)-1,2,4-triazol-1-yl]-2-azaspiro[3.3]heptan-2-yl]methanone]
0.71 | O=C(N1CC2(CC(NS(=O)(=O)c3cccc(C(F)(F)F)c3)C2)C1)N1CC2(CC(n3cnc(C(F)(F)F)n3)C2)C1 [Example 454, 3-(trifluoromethyl)-N-[2-[6-[3-(trifluoromethyl)-1,2,4-triazol-1-yl]-2-azaspiro[3.3]heptane-2-carbonyl]-2-azaspiro[3.3]heptan-6-yl]benzenesulfonamide]
0.05 | O=C(N1CC(C23CC(CNC4(C(F)(F)F)CC4)(C2)C3)C1)N1CC2(CC(n3cnc(C4CC4)n3)C2)C1 [Example 444, [6-(3-cyclopropyl-1,2,4-triazol-1-yl)-2-azaspiro[3.3]heptan-2-yl]-[3-[3-[[[1-(trifluoromethyl)cyclopropyl]amino]methyl]-1-bicyclo[1.1.1]pentanyl]azetidin-1-yl]methanone]
